Measurements: patent US20040071777A1, “Solid dispersions of nitrate active principles” (priority 2000, published 2004)

Columns and labels:
Format in all cases: physicochemical
[1] = Dissolution rate of NCX 1022, paddle method, distilled water with 1% w/v Tween 80; details: within one hour
Procedure: The dissolution rate of the active ingredient from the solid dispersion produced in Example 6 has been compared with the dissolution rate of the pure active ingredient, using the paddle method described in F.U.X. In detail, 40 mg of the solid dispersion or 5 mg of pure NCX 1022 have been placed in a thermostated container at 37° C.±0.5° C. in 500 ml of distilled water including 1% w/v of Tween 80 and kept under stirring at 100 rpm. The quantity of NCX 1022 dissolved has been spectrophotometrically determined in continuous at a wavelength of 240 nm.

[2] = Dissolution rate of NCX4016, paddle method (F.U.X.), 1% sodium lauryl sulphate solution; details: 900 ml, 37° C., 150 rpm
Procedure: The dissolution rate of the solid dispersion produced in the example 3 has been compared with the dissolution rate of the pure NCX4016 in micronised form using the paddle method described in F.U.X., according to the following operating conditions T=37° C.±0.5° C., stirring rate: 150 rpm, dissolution means: 1% sodium lauryl sulphate solution, dissolution volume: 900 ml.
The quantity of NCX4016 released has been spectrophotometrically evaluated in continuous at a wavelength 232 nm.

[3] = Dissolution rate of NCX4016 under condition of supersaturation, paddle method, distilled water; details: after 5 minutes, from solid dispersion 2
Procedure: Three samples of microspheres have been exactly weighed so as to have a content of nitroaspirine of 30 mg. This quantity corresponds to about 4 times the solubility in water of the active principle.
The dissolution rate of the active principle from the above mentioned 3 solid dispersions has been compared with the dissolution rate of the pure active principle in micronized form, with the paddle method, described in F.U.X. using the following conditions:
dissolution means: distilled water
stirring rate: 100 r.p.m.
The quantity of NCX 4016 released has been evaluated spectrophotometrically in continuous at a wavelength 232 nm.
The samples have been taken by means of a peristaltic pump at 5 minutes intervals and for the total time of one hour.

Row | SMILES | solubilisation [1] [%] | percentage of active principle dissolved ([2]; 5 minutes) [%] | percentage of active principle dissolved ([2]; 10 minutes) [%] | percentage of active principle dissolved ([2]; 15 minutes) [%] | percentage of active principle dissolved ([2]; 20 minutes) [%] | percentage of active principle dissolved ([2]; 25 minutes) [%] | percentage of active principle dissolved ([2]; 30 minutes) [%] | percentage of active principle dissolved ([2]; 35 minutes) [%] | percentage of active principle dissolved ([2]; 40 minutes) [%] | percentage of active principle dissolved ([2]; 45 minutes) [%] | percentage of active principle dissolved ([2]; 50 minutes) [%] | percentage of active principle dissolved ([2]; 55 minutes) [%] | percentage of active principle dissolved ([2]; 60 minutes) [%] | quantity dissolved relative to the solubility of the active ingredient in the dissolution means [3]
1 | C[C@]12CCC(=O)C=C1CC[C@@H]1[C@@H]2[C@@H](O)C[C@@]2(C)[C@H]1CC[C@]2(O)C(=O)COC(=O)c1ccc(CO[N+](=O)[O-])cc1 [NCX 1022, hydroxycortisone 21-[(4′-nitroxymethyl)benzoate]] | 4.3 | – | – | – | – | – | – | – | – | – | – | – | – | –
2 | CC(=O)Oc1ccccc1C(=O)Oc1cccc(CO[N+](=O)[O-])c1 [NCX4016 micronized, 3-(nitroxymethyl)phenyl Ester of 2-acetoxybenzoic Acid] | – | 17.9 | 39.2 | 53.5 | 60.7 | 71.4 | 77 | 80.9 | 84.4 | 87 | 88.9 | 90.6 | 91.4 | about twice
